Assay results as given in paper PMC11460631, “Inhibition of transient receptor potential vanilloid 3 channels by antimalarial hydroxychloroquine alleviates TRPV3-dependent dermatitis” (The Journal of Biological Chemistry, 2024).
Residue numbers refer to the chain shown, from its start.

Tests used:
[1] = molecular target: T1, TRPV3 L670 alanine mutation (Homo sapiens, UniProt Q8NET8, L670A); test: Whole-cell recording of TRPV3 L670 alanine mutant; format: cell-based; details: 1 mM 2-APB, ± 80 mV
T1 construct: YFP or GFP; expressed in transfected cells; host or cells: HEK293T
T1 sequence (Q8NET8 1-790 L670A): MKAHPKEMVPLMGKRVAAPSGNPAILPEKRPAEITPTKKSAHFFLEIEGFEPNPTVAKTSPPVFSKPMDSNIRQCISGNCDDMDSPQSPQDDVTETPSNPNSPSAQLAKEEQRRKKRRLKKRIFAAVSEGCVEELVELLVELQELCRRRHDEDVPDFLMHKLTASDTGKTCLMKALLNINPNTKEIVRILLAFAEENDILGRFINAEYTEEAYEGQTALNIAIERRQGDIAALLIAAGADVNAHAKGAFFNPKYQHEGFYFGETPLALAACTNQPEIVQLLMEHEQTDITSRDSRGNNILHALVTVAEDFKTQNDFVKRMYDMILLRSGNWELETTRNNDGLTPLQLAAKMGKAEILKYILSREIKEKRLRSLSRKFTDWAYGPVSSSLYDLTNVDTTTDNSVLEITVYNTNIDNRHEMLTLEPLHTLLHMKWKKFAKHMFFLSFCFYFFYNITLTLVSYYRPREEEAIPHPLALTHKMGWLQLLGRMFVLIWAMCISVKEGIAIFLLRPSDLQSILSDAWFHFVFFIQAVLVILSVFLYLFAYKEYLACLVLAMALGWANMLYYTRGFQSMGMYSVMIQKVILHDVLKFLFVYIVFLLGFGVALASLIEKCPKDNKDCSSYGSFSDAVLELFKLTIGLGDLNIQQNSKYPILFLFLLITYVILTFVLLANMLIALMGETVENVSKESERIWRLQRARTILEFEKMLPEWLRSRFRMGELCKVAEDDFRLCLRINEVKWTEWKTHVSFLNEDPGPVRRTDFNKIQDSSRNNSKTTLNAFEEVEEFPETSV
Description: (§1) As we mentioned above, HCQ may act as a pore blocker of TRPV3. To probe the binding configuration of HCQ to TRPV3, we carried out molecular docking using Rosetta suite (https://rosettacommons.org) ([21]) and validated the docking models with point mutations in TRPV3 (Fig. 4A). […] Furthermore, when we introduced L670A to L591A mutant, we also observed a left shift on the concentration–response curve on this double mutant as compared to L591A mutant (Fig. 4H).
(§2) Figure 4 Residues of the pore domain are critical for HCQ inhibition on TRPV3.A, left panel, docking model of HCQ to the pore domain of TRPV3 structure (6uw4). Right panels, top view and side view of the HCQ-binding pocket. B-J, representative whole-cell recording of TRPV3 and mutants in response to 1 mM 2-APB, the mixture of 1 mM 2-APB and concentration gradients of HCQ with the holding potential of ± 80 mV. K, concentration–response curves of HCQ in WT TRPV3 and mutants (n = 3–5 cells). L, quantification of the inhibitory ratio of HCQ (100 μM) on WT, L591A, and N671Q. […]
(§3) All data from whole-cell recordings were analyzed in Igor Pro (WaveMetrics). IC50 values were determined by fitting the Hill equation to concentration-response relationships. […]

TRPV3 N671Q mutant = molecular target: T2, TRPV3 N671Q mutant (Homo sapiens, UniProt Q8NET8, N671Q); test: Whole-cell recording of TRPV3 N671Q mutant; format: cell-based
T2 construct: YFP or GFP; expressed in transfected cells; host or cells: HEK293T
T2 sequence (Q8NET8 1-790 N671Q): T1 sequence (Q8NET8 1-790 L670A) with A670L, N671Q
Description: as §1, §2, §3

IC50 [1]: 0.17 ± 0.04 µM
inhibition at 100 µM (TRPV3 N671Q mutant; 100 μM HCQ): 27.8%
IC50 (TRPV3 N671Q mutant; 1 mM 2-APB, ± 80 mV): 133 ± 8.6 µM
Compound: CCN(CCO)CCCC(C)Nc1ccnc2cc(Cl)ccc12 (stereo not drawn) [HCQ, hydroxychloroquine]
